According to patent US10369185B2, “Methods and compositions for enhancement of ability to concentrate” (KYOWA HAKKO BIO CO., LTD., priority 2014, dated 2019):
“Also recorded” adds a separate entry of the source. Peptide text beside a SMILES is read from it.

Assays:
Format in all cases: in vivo, human
male runners [1] = experiment: Multiple object tracking (CAVE, NeuroTracker); conditions: for NeuroTracker Δ, group mean: Post-Pre
Description: The testing protocol is depicted in FIG. 1. Data collection occurred on four separate occasions. Each session required participants to perform a 60-min run at 75% of their previously measured VO2max. Following this run, all participants performed a run at 90% of their VO2max until volitional exhaustion. All participants performed their first trial (DHY) without any rehydration. During this session the total weight lost during the trial was determined. The fluid loss that occurred during this session was then used to determine the participant's swear rate (L·hr^−1). To continue in the study, participant's sweat rate was or exceeded 1.3 L·hr^−1. During the next three trails participants were provided 250 ml of fluid every 15 minutes in equal amounts. During one of the trials participants consumed only a flavored sports drink (ELECT only), while during the other trials participants consumed the alanine-glutamine supplement (Sustamine™) mixed in the same flavored sports drink at either a low (LD: 300 mg per 500 ml) or high (HD: 1 g per 500 ml) dose. Visual optical tracking was assessed using a Cave Automatic Virtual Environment (CAVE) system. The CAVE is a 2.4 m×2.4 m×2.4 m room that includes a frontal canvas projection wall which served as surfaces for image projection. Four high-resolution projectors were synchronized, and the image was projected onto the front screen. Participants tracked 4 of 8 objects that moved in a three-dimensional plane. Velocity of movement began at a slow tracking speed and progressed on the performance of the individual participant. Each participant performed 10 trials. During each trial participants wore 3-dimensional glasses. The velocity of movement that was most successful was recorded. Additionally, to make inferences on true effects of the different trials on reaction performance, an analysis based on the magnitude of differences, calculated from 90% confidence intervals, as previously described by Batterham and Hopkins (2005), was used in this study. Differences in Post-Pre performance (Δresponse) between trials were analyzed via a published spreadsheet (Hopkins 2007), with the smallest non-trivial change set at 20% of the grand standard deviation (Batterham and Hopkins 2005). All data are expressed as a mean effect±SD, with percent chances of a beneficial, trivial or negative outcome. Qualitative inferences, based on quantitative chances were assessed as: <1% almost certainly not, 1-5% very unlikely, 5-25% unlikely, 25-75% possibly, 75-95% likely, 95-99% very likely and >99% almost certainly (Hopkins 2002).

[2] = Blood measures during the 60-min run (plasma lactate, glucose, osmolality, potassium, sodium, glutamine); conditions: at 45-min; HD compared with LD
Description: During each experimental session baseline (BL) blood samples were obtained at preexercise. Additional blood samples were also obtained following 30 min, 45 min and 60 min during the exercise session. All blood samples were obtained using a 20-gauge Teflon cannula placed in a superficial forearm vein using a 3-way stopcock with a male luer lock adapter. The cannula was maintained patent using an isotonic saline solution. BL blood samples were drawn following a 15-min equilibration period prior to exercise. Blood samples were obtained at the same time of day during each session.
Blood samples were drawn into plain or EDTA treated tubes. Blood samples will be analyzed in triplicate for hematocrit via microcapillary technique and hemoglobin. […]
Plasma glucose and lactate concentrations were determined in duplicate with an automated analyzer (Analox GM7 enzymatic metabolite analyzer, Analox Instruments USA, Lunenburg, Mass.). Plasma glutamine was analyzed with the use of a spectrophotometer and a commercially available enzymatic kit (Abnova, Jhongli City, Taiwan) per manufacturer's instructions. Serum immunoreactivity values were determined using a BioTekEon spectrophotometer (BioTek, Winooski, Vt., USA). Plasma sodium and potassium concentrations were assessed via ion-selective electrodes (EasyElectrolyte, Medica, Bedford, Mass.). […]

male runners [3] = experiment: Serial subtraction test (modified Serial Sevens Test); conditions: between trials
Description: The testing protocol is depicted in FIG. 1. Data collection occurred on four separate occasions. Each session required participants to perform a 60-min run at 75% of their previously measured VO2max. Following this run, all participants performed a run at 90% of their VO2max until volitional exhaustion. All participants performed their first trial (DHY) without any rehydration. During this session the total weight lost during the trial was determined. The fluid loss that occurred during this session was then used to determine the participant's swear rate (L·hr^−1). To continue in the study, participant's sweat rate was or exceeded 1.3 L·hr^−1. During the next three trails participants were provided 250 ml of fluid every 15 minutes in equal amounts. During one of the trials participants consumed only a flavored sports drink (ELECT only), while during the other trials participants consumed the alanine-glutamine supplement (Sustamine™) mixed in the same flavored sports drink at either a low (LD: 300 mg per 500 ml) or high (HD: 1 g per 500 ml) dose.
A modified version of the original Serial Sevens Test was utilized to analyze cognitive function. […] The number of correct answers and the average time per correct answer was recorded.

## C[C@H](N)C(=O)N[C@@H](CCC(N)=O)C(=O)O [L-Alanyl-L-Glutamine] (H-Ala-Gln-OH)
Male runners [1]; Dehydration vs High Dose
  NeuroTracker Δ, Interpretation: Unclear
  NeuroTracker Δ, Mean Difference: −0.06
  NeuroTracker Δ, Percent Negative: 37.20%
  NeuroTracker Δ, Percent Positive: 12.32%
  NeuroTracker Δ, Percent Trivial: 50.47%
Male runners [1]; Dehydration vs Low Dose
  NeuroTracker Δ, Interpretation: Unclear
  NeuroTracker Δ, Mean Difference: 0.008
  NeuroTracker Δ, Percent Negative: 21.19%
  NeuroTracker Δ, Percent Positive: 24.48%
  NeuroTracker Δ, Percent Trivial: 54.33%
Male runners [1]; Gatorade vs High Dose
  NeuroTracker Δ, Interpretation: likely maintain or improve their scores more so than when they consumed the electrolyte drink only; also recorded: Likely
  NeuroTracker Δ, Mean Difference: −0.23
  NeuroTracker Δ, Percent Negative: 85.10%
  NeuroTracker Δ, Percent Positive: 0.44%
  NeuroTracker Δ, Percent Trivial: 14.46%
Male runners [1]; High Dose (1 g per 500 ml)
  NeuroTracker Δ, group mean: 0.201
Male runners [1]; Low Dose (300 mg per 500 ml)
  NeuroTracker Δ, group mean: 0.132
Male runners [1]; Low Dose vs Gatorade
  NeuroTracker Δ, Interpretation: Possibly
  NeuroTracker Δ, Mean Difference: 0.17
  NeuroTracker Δ, Percent Negative: 4.42%
  NeuroTracker Δ, Percent Positive: 64.40%
  NeuroTracker Δ, Percent Trivial: 31.18%
Male runners [1]; Low Dose vs High Dose
  NeuroTracker Δ, Interpretation: Possibly
  NeuroTracker Δ, Mean Difference: 0.069
  NeuroTracker Δ, Percent Negative: 26.72%
  NeuroTracker Δ, Percent Positive: 0.45%
  NeuroTracker Δ, Percent Trivial: 72.83%
Male runners [1]; between trials
  changes in multiple object tracking: No significant differences were noted between trials
[2]
  plasma glutamine concentrations: significant difference
Male runners [3]
  serial subtraction tests and time per successful answer: No significant differences
